Activity calls are given as the source filed them. No cut-off for these calls is given here.

Data on 7 compounds can be found in ChEMBL document CHEMBL1159187, “Novel polyamine derivatives as potent competitive inhibitors of Trypanosoma cruzi trypanothione reductase” (Bioorg Med Chem Lett, 1995).

For one assay, the target named is Trypanothione reductase (Trypanosoma cruzi, UniProt P28593). In words: Compound was evaluated for the competitive inhibition of trypanothione reduction by recombinant Trypanothione reductase from Trypanosoma cruzi.
Chain of Trypanothione reductase (P28593 whole entry): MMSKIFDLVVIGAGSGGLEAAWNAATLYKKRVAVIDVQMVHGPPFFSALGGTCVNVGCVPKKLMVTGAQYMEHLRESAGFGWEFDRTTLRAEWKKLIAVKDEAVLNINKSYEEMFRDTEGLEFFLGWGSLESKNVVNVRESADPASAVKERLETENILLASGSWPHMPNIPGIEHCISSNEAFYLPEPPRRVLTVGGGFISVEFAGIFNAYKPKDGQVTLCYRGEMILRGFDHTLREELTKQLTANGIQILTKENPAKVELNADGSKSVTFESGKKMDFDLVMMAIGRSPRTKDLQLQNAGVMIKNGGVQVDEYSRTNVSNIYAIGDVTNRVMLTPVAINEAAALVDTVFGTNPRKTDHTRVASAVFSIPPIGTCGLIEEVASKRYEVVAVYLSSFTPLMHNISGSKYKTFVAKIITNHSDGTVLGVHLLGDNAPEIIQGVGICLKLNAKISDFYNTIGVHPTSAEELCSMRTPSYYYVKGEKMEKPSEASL
In assay [1] the target is Glutathione reductase (Saccharomyces cerevisiae) (UniProt P41921). In words: Compound was evaluated for the competitive inhibition of glutathione reductase from yeast; No inhibition.
Chain of Glutathione reductase (Saccharomyces cerevisiae) (P41921 whole entry, looked up): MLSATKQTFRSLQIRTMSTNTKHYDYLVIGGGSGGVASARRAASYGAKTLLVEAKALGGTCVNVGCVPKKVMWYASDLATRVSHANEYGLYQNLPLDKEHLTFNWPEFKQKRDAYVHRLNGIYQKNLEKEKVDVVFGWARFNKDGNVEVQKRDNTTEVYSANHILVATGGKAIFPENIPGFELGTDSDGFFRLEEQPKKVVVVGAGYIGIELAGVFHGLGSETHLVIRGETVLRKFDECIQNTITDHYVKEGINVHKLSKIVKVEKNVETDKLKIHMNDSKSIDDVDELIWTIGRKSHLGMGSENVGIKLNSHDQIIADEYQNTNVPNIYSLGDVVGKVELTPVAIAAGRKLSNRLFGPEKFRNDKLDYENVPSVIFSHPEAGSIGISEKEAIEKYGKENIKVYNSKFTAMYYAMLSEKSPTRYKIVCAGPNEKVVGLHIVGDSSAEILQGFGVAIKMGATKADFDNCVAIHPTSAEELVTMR

As to `NCCCN(CCCCN(CCCN)CCCc1ccccc1)CCCc1ccccc1`, the Ki on Trypanothione reductase worked out at 3.5 µM. Besides, the outcome in assay [1] was inactive.
In the case of `NCCCCN(CCCN)Cc1ccc2ccccc2c1`, the Ki on Trypanothione reductase worked out at 108 µM.
Turning to `NCCCN(CCCCN(CCCN)Cc1ccc2ccccc2c1)Cc1ccc2ccccc2c1`, the Ki on Trypanothione reductase was 5.5 µM. The result in assay [1] was inactive.
Take `c1ccc2cc(CNCCCCNCCCNCc3ccc4ccccc4c3)ccc2c1`: the inhibition constant Ki at Trypanothione reductase amounted to 9.5 µM. Also, the outcome in assay [1] was inactive.
Regarding `NCCCN(CCCCN(CCCN)Cc1ccccc1)Cc1ccccc1`, the Ki at Trypanothione reductase came to 19 µM.
On to `O=C(NCCCCNCCCNC(=O)c1ccccc1)c1ccccc1`, for which, at Trypanothione reductase, the Ki is greater than 2000 µM.
On the same count and under the same terms, the same measure for `NCCCCN(CCCN)C(=O)OCc1ccccc1`: 280 µM.
